Where “and” joins values, the source holds several entries; their conditions need not be identical. Equal values may be shown once.
Assays:
Format in all cases: cell-based
[1] = test system: PD-1 expressing CD3+ normal human T cells; assay: PD-1 surface expression on CD3+ T cells of healthy donors after treatment (1, 18, 24 Hr); conditions: for % reduction in % of T cells expressing PD-1: vs untreated
Experimental: (§1) Peripheral blood lymphocytes (PBLs) were separated from normal human leukocytes of healthy donors by Ficol separation and CD3 positive T cells were separated by anti-CD3 antibody-coupled magnetic beads. The CD3+ T cells were cultured in RPMI 1640 medium supplemented with 10% heat inactivated fetal calf serum (FCS), 1% L-Glutamine, 1% sodium pyruvate, 1% non-essential amino acids, and 1% antibiotics. The cells were usually maintained for, for on average 24 hours after their separation before various molecules were added and their effects on the T cells were measured. […] It was therefore tested if neurotransmitters, neuropeptides, and/or modulators of voltage-gated ion channels can reduce PD-1 on the cell surface of T cells. Such a reduction would allow the T cells to escape the tumor-induced T cell suppression, and the activated T cells could then attach the cancer cells. As such, the expression of PD-1 on the surface of these treated and untreated T cells was monitored. […] Shorter in vitro incubation times are frequently preferable when cells are going to subsequently be returned to a subject, as they end to decrease the risk of an adverse reaction.

[2] = test system: PD-1 expressing large proliferating CD3+ normal human T cells; assay: PD-1 expression on large proliferating T cells (FSC/SSC gating), 1 Hr treatment; conditions: for % reduction in % of large T cells expressing PD-1: vs untreated
Experimental: as §1
(§2) CD3 positive T cells of patients are a heterogenous mix of different types of T cells. […] Using this FCS and SSC analysis, T cells can be distinguished and separated by size into large proliferating T cells and smaller non-proliferating T cells.

[3] = test system: PD-1 expressing smaller non-proliferating CD3+ normal human T cells; assay: PD-1 expression on smaller non-proliferating T cells (FSC/SSC gating), 1 Hr treatment; conditions: for % reduction in % of smaller T cells expressing PD-1: vs untreated
Experimental: as §1, §2

Row | Compound | % of T cells expressing PD-1 ([1]; 18 Hr treatment, 10^−7M) [%] | % reduction in % of T cells expressing PD-1 ([1]; 18 Hr treatment, 10^−7M) [%] | % of T cells expressing PD-1 ([1]; 24 Hr treatment, 10^−7M) [%] | % reduction in % of T cells expressing PD-1 ([1]; 24 Hr treatment, 10^−7M) [%] | % of T cells expressing PD-1 ([1]; 24 Hr treatment, 10^−8M) | % reduction in % of T cells expressing PD-1 ([1]; 24 Hr treatment, 10^−8M) [%] | % of T cells expressing PD-1 ([1]; 1 Hr treatment, 10^−8M) [%] | % reduction in % of T cells expressing PD-1 ([1]; 1 Hr treatment, 10^−8M) [%] | % of large T cells expressing PD-1 ([2]; 10^−8M) [%] | % reduction in % of large T cells expressing PD-1 ([2]; 10^−8M) [%] | % of smaller T cells expressing PD-1 ([3]; 10−8M) [%] | % reduction in % of smaller T cells expressing PD-1 ([3]; 10−8M) [%] | also measured
1 | Oc1ccc(C2CNCCc3c2cc(O)c(O)c3Cl)cc1 (stereo not drawn) [Fenoldopam (powder), Fenoldopam] | 25.75 | 25.79 | 21.3 | −4.26 | 14.7% | 28.05 | – | – | – | – | – | – | effect on PD-1 expressing T cells ([1]; incubated for 24 hours): did not have a positive effect
2 | CN[C@H](CC(=O)O)C(=O)O [NMDA, N-methyl-D-aspartic acid] | 24.75 | 28.67 | – | – | – | – | 30.35 | 17 | – | – | – | – | –
3 | NC[C@@H]1O[C@H](C23CC4CC(CC(C4)C2)C3)Cc2c1ccc(O)c2O [A77636] | 27.10 | 21.90 | 12.7 | 37.84 | 14.7% | 28.05 | 27.25 | 25 | 20.5 | 4.7 | 40.8 | 7.1 | –
4 | OC1(c2ccc(Cl)cc2)CCN(Cc2c[nH]c3ccccc23)CC1 [L-741,626] | – | – | – | – | – | – | – | – | – | – | – | – | % of large T cells expressing PD-1 ([2]; concentration not given): 19.0%; % reduction in % of large T cells expressing PD-1 ([2]; concentration not given): 11.6%; % of smaller T cells expressing PD-1 ([3]; concentration not given): 38.6%; % reduction in % of smaller T cells expressing PD-1 ([3]; concentration not given): 12.1%
5 | Cc1cccc(C(=O)NCN2CCN(c3ccccc3C#N)CC2)c1 [PD168077] | 24 | 30.84 | 5.3 | 74.05 | – | – | 15.1 | 59 | 15.6 | 27.4 | 40.3 | 8.2 | reduction of PD-1 surface expression level and of number of PD-1 expressing T cells ([1]; 1, 18 or 24 hours treatment): greatest reduction in mean percentage of PD-1 expressing T cells after 24 hours of treatment
6 | N#Cc1cc2[nH]c(=O)c(=O)[nH]c2cc1[N+](=O)[O-] [CNQX] | – | – | – | – | – | – | – | – | – | – | – | – | % of T cells expressing PD-1 ([1]; 24 Hr treatment, 0.5*10^-6M): 13.7%; % reduction in % of T cells expressing PD-1 ([1]; 24 Hr treatment, 0.5*10^-6M): 32.93%; % of T cells expressing PD-1 ([1]; 24 Hr treatment, 0.5*10^−5M): 12.9%; % reduction in % of T cells expressing PD-1 ([1]; 24 Hr treatment, 0.5*10^−5M): 36.84%
7 | Cc1onc(O)c1CC(N)C(=O)O (stereo not drawn) [AMPA, alph-amino-3-hydroxy-5-methyl-4-isoxazalepropinoic acid] | 28.55 | 17.72 | – | – | – | – | 26.4 | 28 | – | – | – | – | –
8 | CCCN1CCO[C@@H]2c3cc(O)ccc3OC[C@H]21 [PD 128907] | 27.25 | 21.47 | 13.6 | 33.41 | 16.3% and 10.7% | 47.61 | 26.15 | 29 | 16.1 | 25.1 | 38.4 | 12.5 | –
9 | Oc1ccc(C2CNCCc3c2cc(O)c(O)c3Cl)cc1 (stereo not drawn) [Fenoldopam - Corlopam, Fenoldopam] | 27.87 | 19.74 | – | – | – | – | – | – | – | – | – | – | –

Reference: patent US12455279B2, “Personalized immunotherapy for rejuvenating activating and strengthening exhausted and dysfunctional T cells, reducing PD-1, and improving immune function” (priority 2018, dated 2025)
